Test results: patent US10711004B2 (Genentech, Inc., priority 2018, dated 2020)
Where two headings read alike, the source gives them in different places.

Molecular target: human TRPA1 channel (Homo sapiens (Human), UniProt O75762)
Assay: hTRPA1 CHO Ca2+ FLIPR Tetra assay, block of cinnamaldehyde induced calcium influx
Assay type: cell-based
Conditions: for IC50: CHO cells expressing TRPA1, Hill coefficient fixed to 1.5; for TRPA1 IC50 compared with 3-azabicyclo[3.1.0]hexene linker and cyclobutylene linker analogues: bicyclo[3.1.0]hexene linker compounds versus same-substituent analogues (compounds 16, 191; 26, 1)
How it was run: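 Calcium-dye-loaded TRPA1-expressing CHO cells in HBSS/20 mM HEPES pH 7.4, 0.02% BSA were preincubated with compound for 10 or 90 min at room temperature. Calcium influx evoked by roughly an EC50 concentration of cinnamaldehyde was then read on FLIPR Tetra; IC50 came from curve fits with a fixed Hill coefficient.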

[1] = read-out: hTRPA1 IC50 (10 min), compounds incubated 10 minutes at room temperature before cinnamaldehyde agonist
[2] = read-out: hTRPA1 IC50 (90 min), compounds incubated 90 minutes at room temperature before cinnamaldehyde agonist

human TRPA1 channel, sequence (O75762 whole entry): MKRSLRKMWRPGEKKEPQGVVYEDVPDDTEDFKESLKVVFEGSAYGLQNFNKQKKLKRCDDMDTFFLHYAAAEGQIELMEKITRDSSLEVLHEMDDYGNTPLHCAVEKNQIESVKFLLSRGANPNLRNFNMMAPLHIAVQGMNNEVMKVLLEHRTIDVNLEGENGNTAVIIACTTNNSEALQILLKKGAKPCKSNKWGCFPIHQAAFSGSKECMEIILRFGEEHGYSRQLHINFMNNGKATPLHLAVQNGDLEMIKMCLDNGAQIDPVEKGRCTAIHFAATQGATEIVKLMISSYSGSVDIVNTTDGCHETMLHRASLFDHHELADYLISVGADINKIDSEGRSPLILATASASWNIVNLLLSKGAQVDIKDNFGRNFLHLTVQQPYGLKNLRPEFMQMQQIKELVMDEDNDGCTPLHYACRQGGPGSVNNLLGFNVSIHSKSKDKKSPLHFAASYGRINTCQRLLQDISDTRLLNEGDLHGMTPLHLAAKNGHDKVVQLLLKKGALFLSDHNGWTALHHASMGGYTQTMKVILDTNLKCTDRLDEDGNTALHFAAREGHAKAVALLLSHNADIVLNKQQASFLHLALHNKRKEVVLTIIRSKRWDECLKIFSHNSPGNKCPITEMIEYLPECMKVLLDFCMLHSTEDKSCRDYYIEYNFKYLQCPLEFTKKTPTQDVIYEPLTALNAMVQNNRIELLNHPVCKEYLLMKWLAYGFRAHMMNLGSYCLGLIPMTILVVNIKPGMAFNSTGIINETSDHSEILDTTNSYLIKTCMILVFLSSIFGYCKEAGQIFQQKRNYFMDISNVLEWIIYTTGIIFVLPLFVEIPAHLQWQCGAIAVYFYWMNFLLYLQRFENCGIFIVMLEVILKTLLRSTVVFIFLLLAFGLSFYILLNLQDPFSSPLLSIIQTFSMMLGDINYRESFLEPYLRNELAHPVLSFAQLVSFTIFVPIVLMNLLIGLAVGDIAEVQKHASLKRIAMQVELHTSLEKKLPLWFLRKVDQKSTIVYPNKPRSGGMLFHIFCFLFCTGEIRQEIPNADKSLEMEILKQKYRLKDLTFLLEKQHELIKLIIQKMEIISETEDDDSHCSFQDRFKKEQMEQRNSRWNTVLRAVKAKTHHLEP

| SMILES | IC50 [1] [µM] | IC50 [2] [µM] | TRPA1 IC50 compared with 3-azabicyclo[3.1.0]hexene linker and cyclobutylene linker analogues |
| --- | --- | --- | --- |
| O=c1c2cccnc2cnn1Cc1nc([C@H]2[C@@H]3CN(c4cc(Cl)ccn4)C[C@@H]32)no1 [Example Compound 167, 6-((3-((1R,5S,6r)-3-(4-chloropyridin-2-yl)-3-azabicyclo[3.1.0]hexan-6-yl)-1,2,4-oxadiazol-5-yl)methyl)pyrido[2,3-d]pyridazin-5(6H)-one] | 0.0511 | 0.046 |  |
| Cc1ccnc2ncn(Cc3nc([C@H]4[C@@H]5CN(c6cc(Cl)ccn6)C[C@@H]54)no3)c(=O)c12 [Example Compound 168, 3-((3-((1R,5S,6r)-3-(4-chloropyridin-2-yl)-3-azabicyclo[3.1.0]hexan-6-yl)-1,2,4-oxadiazol-5-yl)methyl)-5-methylpyrido[2,3-d]pyrimidin-4(3H)-one] | 0.0508 |  |  |
| Cn1cc(-c2cccc(N3C[C@@H]4[C@H](C3)[C@H]4c3noc(Cn4ncc5ncccc5c4=O)n3)c2)cn1 [Example Compound 169, 6-((3-((1R,5S,6r)-3-(3-(1-methyl-1H-pyrazol-4-yl)phenyl)-3-azabicyclo[3.1.0]hexan-6-yl)-1,2,4-oxadiazol-5-yl)methyl)pyrido[2,3-d]pyridazin-5(6H)-one] | 0.043 | 0.041 |  |
| Cn1cnc2ncn(Cc3nc([C@H]4[C@@H]5CN(c6cc(Cl)c(F)cn6)C[C@@H]54)no3)c(=O)c21 [Example Compound 170, 1-((3-((1R,5S,6r)-3-(4-chloro-5-fluoropyridin-2-yl)-3-azabicyclo[3.1.0]hexan-6-yl)-1,2,4-oxadiazol-5-yl)methyl)-7-methyl-1,7-dihydro-6H-purin-6-one] | 0.233 | 0.13 |  |
| Cn1cnc2ncn(Cc3nc([C@H]4[C@@H]5CN(c6cccc(C#N)n6)C[C@@H]54)no3)c(=O)c21 [Example Compound 171, 6-((1R,5S,6r)-6-(5-((7-methyl-6-oxo-6,7-dihydro-1H-purin-1-yl)methyl)-1,2,4-oxadiazol-3-yl)-3-azabicyclo[3.1.0]hexan-3-yl)picolinonitrile] | 0.271 | 0.089 |  |
| Cn1cnc2ncn(Cc3nc([C@@H]4CC[C@@H](c5ccc(F)cc5)C4)no3)c(=O)c21 [Example Compound 172, 1-((3-((1R,3R)-3-(4-fluorophenyl)cyclopentyl)-1,2,4-oxadiazol-5-yl)methyl)-7-methyl-1,7-dihydro-6H-purin-6-one] | 0.0266 | 0.018 |  |
| Cn1c(=O)ccc2ncn(Cc3nc([C@H]4[C@@H]5CN(c6cccc(Cl)c6)C[C@@H]54)no3)c(=O)c21 [Example Compound 173, 3-((3-((1R,5S,6r)-3-(3-chlorophenyl)-3-azabicyclo[3.1.0]hexan-6-yl)-1,2,4-oxadiazol-5-yl)methyl)-5-methyl-3,5-dihydropyrido[3,2-d]pyrimidine-4,6-dione] | 0.00397 |  |  |
| Cn1c(=O)ccc2ncn(Cc3nc([C@H]4[C@@H]5CN(c6cc(Cl)ccn6)C[C@@H]54)no3)c(=O)c21 [Example Compound 174, 3-((3-((1R,5S,6r)-3-(4-chloropyridin-2-yl)-3-azabicyclo[3.1.0]hexan-6-yl)-1,2,4-oxadiazol-5-yl)methyl)-5-methyl-3,5-dihydropyrido[3,2-d]pyrimidine-4,6-dione] | 0.0606 | 0.05 |  |
| Cn1cnc2ncn(Cc3nc([C@H]4[C@@H]5CN(c6ccnc(F)c6)C[C@@H]54)no3)c(=O)c21 [Example Compound 175, 1-((3-((1R,5S,6r)-3-(2-fluoropyridin-4-yl)-3-azabicyclo[3.1.0]hexan-6-yl)-1,2,4-oxadiazol-5-yl)methyl)-7-methyl-1,7-dihydro-6H-purin-6-one] | 0.42 | 0.073 |  |
| Cn1cnc2ncn(Cc3nc([C@H]4C[C@H](Oc5cccc(F)c5)C4)no3)c(=O)c21 [Example Compound 176, 1-((3-((1r,3r)-3-(3-fluorophenoxy)cyclobutyl)-1,2,4-oxadiazol-5-yl)methyl)-7-methyl-1,7-dihydro-6H-purin-6-one] | 0.0243 |  |  |
| Cn1cnc2ncn(Cc3nc([C@H]4C[C@H](Oc5ccc(F)cc5)C4)no3)c(=O)c21 [Example Compound 177, 1-((3-((1r,3r)-3-(4-fluorophenoxy)cyclobutyl)-1,2,4-oxadiazol-5-yl)methyl)-7-methyl-1,7-dihydro-6H-purin-6-one] | 0.0401 |  |  |
| Cn1cnc2ncn(Cc3nc([C@H]4C[C@H](Oc5cccc(C#N)c5)C4)no3)c(=O)c21 [Example Compound 178, 3-((1r,3r)-3-(5-((7-methyl-6-oxo-6,7-dihydro-1H-purin-1-yl)methyl)-1,2,4-oxadiazol-3-yl)cyclobutoxy)benzonitrile] | 0.0815 |  |  |
| Cn1cc(-c2ccc(N3C[C@@H]4[C@H](C3)[C@H]4c3noc(Cn4cnc5ncn(C)c5c4=O)n3)cc2)cn1 [Example Compound 179, 7-methyl-1-((3-((1R,5S,6r)-3-(4-(1-methyl-1H-pyrazol-4-yl)phenyl)-3-azabicyclo[3.1.0]hexan-6-yl)-1,2,4-oxadiazol-5-yl)methyl)-1,7-dihydro-6H-purin-6-one] | 0.134 | 0.067 |  |
| O=c1c2cccnc2ncn1Cc1nc([C@H]2[C@@H]3C=C(c4cccc(Cl)c4)C[C@@H]32)no1 [Example Compound 180, 3-((3-((1S,5S,6R)-3-(3-chlorophenyl)bicyclo[3.1.0]hex-2-en-6-yl)-1,2,4-oxadiazol-5-yl)methyl)pyrido[2,3-d]pyrimidin-4(3H)-one] | 0.0233 | 0.024 |  |
| O=c1c2cccnc2ncn1Cc1nc([C@@H]2[C@H]3C=C(c4cccc(Cl)c4)C[C@H]32)no1 [Example Compound 181, 3-((3-((1R,5R,6S)-3-(3-chlorophenyl)bicyclo[3.1.0]hex-2-en-6-yl)-1,2,4-oxadiazol-5-yl)methyl)pyrido[2,3-d]pyrimidin-4(3H)-one] | 0.0218 | 0.021 |  |
| Cn1cnc2ncn(Cc3nc([C@H]4[C@@H]5CN(c6cc(F)ccn6)C[C@@H]54)no3)c(=O)c21 [Example Compound 182, 1-((3-((1R,5S,6r)-3-(4-fluoropyridin-2-yl)-3-azabicyclo[3.1.0]hexan-6-yl)-1,2,4-oxadiazol-5-yl)methyl)-7-methyl-1,7-dihydro-6H-purin-6-one] | 0.194 | 0.043 |  |
| O=c1c2cccnc2ncn1Cc1nc([C@H]2[C@@H]3CN(c4cc(Cl)ccn4)C[C@@H]32)no1 [Example Compound 183, 3-((3-((1R,5S,6r)-3-(4-chloropyridin-2-yl)-3-azabicyclo[3.1.0]hexan-6-yl)-1,2,4-oxadiazol-5-yl)methyl)pyrido[2,3-d]pyrimidin-4(3H)-one] | 0.0651 | 0.052 |  |
| Cn1cnc2ncn(Cc3nc([C@H]4[C@@H]5C=C(c6cccc(Cl)c6)C[C@@H]54)no3)c(=O)c21 [Example Compound 184, 1-((3-((1S,5S,6R)-3-(3-chlorophenyl)bicyclo[3.1.0]hex-2-en-6-yl)-1,2,4-oxadiazol-5-yl)methyl)-7-methyl-1,7-dihydro-6H-purin-6-one] | 0.00883 | 0.0018 | improved TRPA1 IC50 values |
| Cn1cnc2ncn(Cc3nc([C@@H]4[C@H]5C=C(c6cccc(Cl)c6)C[C@H]54)no3)c(=O)c21 [Example Compound 185, 1-((3-((1R,5R,6S)-3-(3-chlorophenyl)bicyclo[3.1.0]hex-2-en-6-yl)-1,2,4-oxadiazol-5-yl)methyl)-7-methyl-1,7-dihydro-6H-purin-6-one] | 0.0185 | 0.0078 | improved TRPA1 IC50 values |
